From patent US20260325541A1, “BENZGALANTAMINE FOR TREATING PERSISTENT POST-CONCUSSION SYMPTOMS” (Alpha Cognition Inc., priority 2023, published 2026)
Counter-ions that a name gives are not always drawn.

Columns and labels:
[1] = system: C. albicans ATCC 10231; experiment: USP 51 antimicrobial effectiveness test, C. albicans; type: cell-based, Candida albicans; settings: for CFU/mL: initial 6.7 × 10^5 CFU/mL, 22.5±2.5 °C; for Log Reduction: initial log10 5.8
Experimental: (§1) As shown in WO2022236396A1, in order to assess the anti-microbial properties of ALPHA-1062, the USP (US Pharmacopeia) Chapter 51 Preservative Challenge Test (USP 51) was employed. The USP 51 is a common method used to gauge preservative effectiveness. Much like a Preservative Challenge Screen, it is used to evaluate the effect of preservatives in cosmetics, personal care products, and drug products. Preservatives are typically antimicrobial ingredients that are added to aqueous product formulations to help maintain the safety of the product by inhibiting the growth and reducing the number of microbial contaminants.
(§2) In the context of the present invention, ALPHA-1062 (in the form of the gluconate salt) was assessed in place of (as) a preservative. No additional preservative was added to the ALPHA-1062 gluconate preparation, rather an anti-microbial effect of the agent itself (ALPHA-1062) was assessed. ALPHA-1062 is therefore the anti-microbial agent in the assay and experiments described below.
(§3) The USP 51 challenge test utilizes 5 microorganisms (3 bacteria and 2 fungi) for challenge testing. Each of the microorganisms are known strains of pathogenic microorganisms and they represent a wide range of microbial physiologies.
(§4) Cultures of the following microorganisms were applied, as per standard guidelines for USP 51: Candida albicans (ATCC No. 10231), Aspergillus brasiliensis (ATCC No. 16404), Escherichia coli (ATCC No. 8739), Pseudomonas aeruginosa (ATCC No. 9027), and Staphylococcus aureus (ATCC No. 6538). […]
(§5) The initial concentration of viable microorganisms in each test preparation was estimated based on the concentration of microorganisms in each of the standardized inoculums, as determined by the plate-count method.
(§6) The inoculated containers were incubated at 22.5±2.5 °C and each container was sampled at the appropriate intervals, as specified in Table 3. Any changes observed in the appearance of the culture was recorded at these intervals. By using the plate-count procedure, the number of CFU present in each test preparation was determined for the applicable intervals.
(§7) An inactivator (neutralizer) of the specific antimicrobial was incorporated in the plate count or in the appropriate dilution prepared for plating. These conditions were determined in the validation study for that sample based upon the conditions of media and microbial recovery incubation times listed in Table 2. Using the calculated concentrations of CFU per mL present at the start of the test, the change in log 10 values of the concentration of CFU per mL for each microorganism was calculated at the applicable test intervals, and the changes were expressed in terms of log reductions.

[2] = system: all 5 organisms tested in the USP 51; experiment: USP 51 overall assessment against Category 2 criteria; type: cell-based; settings: USP 51, Category 2 criteria, 14 and 28 days
Experimental: as §1
In the context of the present invention, ALPHA-1062 (in the form of the gluconate salt) was assessed in place of (as) a preservative. No additional preservative was added to the ALPHA-1062 gluconate preparation, rather an anti-microbial effect of the agent itself (ALPHA-1062) was assessed. […]
as §5
The inoculated containers were incubated at 22.5±2.5 °C and each container was sampled at the appropriate intervals, as specified in Table 3. Any changes observed in the appearance of the culture was recorded at these intervals. […]

[3] = system: E. coli ATCC 8739; experiment: USP 51 antimicrobial effectiveness test, E. coli; type: cell-based, Escherichia coli; settings: for CFU/mL: initial 9.1 × 10^5 CFU/mL, 22.5±2.5 °C; for Log Reduction: initial log10 6.0
Experimental: as §1, §2, §3, §4, §5, §6, §7

[4] = system: A. brasiliensis ATCC 16404; experiment: USP 51 antimicrobial effectiveness test, A. brasiliensis; type: cell-based, Aspergillus brasiliensis; settings: for CFU/mL: initial 2.2 × 10^5 CFU/mL, 22.5±2.5 °C; for Log Reduction: initial log10 5.3
Experimental: as §1, §2, §3, §4, §5, §6, §7

[5] = system: S. aureus ATCC 6538; experiment: USP 51 antimicrobial effectiveness test, S. aureus; type: cell-based, Staphylococcus aureus; settings: for CFU/mL: initial 4.0 × 10^5 CFU/mL, 22.5±2.5 °C; for Log Reduction: initial log10 5.6
Experimental: as §1, §2, §3, §4, §5, §6, §7

[6] = system: P. aeruginosa ATCC 9027; experiment: USP 51 antimicrobial effectiveness test, P. aeruginosa; type: cell-based, Pseudomonas aeruginosa; settings: for CFU/mL: initial 2.9 × 10^5 CFU/mL, 22.5±2.5 °C; for Log Reduction: initial log10 5.5
Experimental: as §1, §2, §3, §4, §5, §6, §7

[7] = system: mice after repeated blast mild traumatic brain injury (blast mTBI); experiment: Thermal Gradient Ring (TGR) assessment of heat/pain sensitivity after repetitive blast mTBI; type: in vivo, C57Bl/6 mice; settings: after one month of treatment, 3.0 mg/kg
[8] = intra-nasal administration, similar doses; cited from earlier work
[9] = Body weight / overt toxicity over the 35-day study; type: in vivo, male Wistar rats
Description: Young adult (2-3 months) male Wistar rats were subjected to a moderate TBI induced by controlled cortical impact (CCI). Animal models of TBI including the CCI model and functional tests have been described in detail in peer reviewed publications (Xiong et al., 2013, Nat Rev Neurosci.; Zhang et al., 2016, J Neurosurg.; Zhang et al., 2016, Neurochem Int.; Zhang et al., 2021, J Neurotrauma). Injury consisted of a single impact at 4.0 m/see, 2.5 mm deformation to the left parietal cortex. In addition, a group of animals was left healthy/not injured to serve as a healthy control.
The animals were divided into 3 groups: • 1) TBI+Vehicle (purified water, n=10) • 2) TBI+ALPHA-1062 (4.5 mg/kg) (n=10) • 3) Healthy/not injured and not treated (Sham surgery) (n=10)
The substance used in this study was ALPHA-1062 at 4.5 mg/kg. As control treatment (vehicle) purified water was administered intranasally (IN). The ALPHA-1062 and the control treatment were initiated 2 hours after injury and continued twice daily (with a 6-hour interval) for 35 consecutive days.
Data were evaluated for normality applying the following statistical analyses: Data transformation was considered if the data was abnormal. The data was analyzed with GraphPad Prism Software 9.0. All data herein is presented as the mean±standard deviation (SD) and were analyzed with one-way analysis of variance (ANOVA) or two-way ANOVA (treatment x time) followed by post hoc Tukey's multiple comparison test (more than two groups). Differences between means are considered statistically significant when p is <0.05.

[10] = 43% RH (RT); from WO 2022/150917; cited from earlier work
[11] = Solid-state stability of Form A; type: physicochemical
Experimental: As described therein, polymorphic studies were conducted with benzgalantamine utilizing a variety of solvents and crystallization conditions (Table 5 of WO 2022/150917) and subsequent XRPD analyses. Seven unique crystalline materials were observed and isolated, and were designated as Forms A, B, C, D and Materials E, F and G (FIG. 6 of WO 2022/150917). Amorphous material was also observed. Form A of benzgalantamine is an anhydrous crystalline material with concomitant melt/decomposition onset near 117 °C. […] Based upon WO 2022/150917, anhydrous Form A, stored under appropriate temperature and humidity conditions to maintain its Form and stability, appears best suited of the various benzgalantamine forms to be used in formulation and manufacture of drug products.
As used herein, the term stable may relate to either chemical stability or to polymorph stability. Polymorph stability refers to the likelihood of a polymorph form remaining in its specific crystalline state under suitable storage conditions. For example, a stable polymorph form will maintain at least about 95% by weight, preferably at least about 98% by weight, and more preferably at least about 99% by weight or more of the crystalline form, in other words the form remains unchanged after storage under the indicated conditions for the indicated time.

[12] = system: patients with chronic TBI; settings: oral, cited from earlier work; for adverse effects: chronic TBI patients; for TBI-related symptoms: patient reported, not placebo controlled
[13] = system: pre-clinical models; settings: cited from earlier work
[14] = system: microglial phagocytic activity; settings: cited from earlier work
[15] = nausea, vomiting and diarrhea; Cochrane review 2006; cited from earlier work

COc1ccc2c3c1O[C@H]1C[C@@H](OC(=O)c4ccccc4)C=C[C@@]31CCN(C)C2 [ALPHA-1062 Gluconate, (4aS,6R,8aS)-4a,5,6,9,10,11,12-hexahydro-3-methoxy-11-methyl-6H-benzofuro[3a,3,2-ef][2]benzazepin-6-benzoate-gluconate salt]
CFU/mL ([1]; Day 14): <10 CFU/mL | Log Reduction ([1]; Day 14): 4.8 Log | CFU/mL ([1]; Day 28): <10 CFU/mL | Log Reduction ([1]; Day 28): 4.8 Log | anti-microbial effect [2]: strong anti-microbial effect against all 5 organisms tested in the USP 51 | CFU/mL ([3]; Day 14): <10 CFU/mL | Log Reduction ([3]; Day 14): 5.0 Log | CFU/mL ([3]; Day 28): <10 CFU/mL | Log Reduction ([3]; Day 28): 5.0 Log | CFU/mL ([4]; Day 14): 1.6 × 10^2 CFU/mL | Log Reduction ([4]; Day 14): 3.1 Log | CFU/mL ([4]; Day 28): 1.5 × 10^2 CFU/mL | Log Reduction ([4]; Day 28): 3.1 Log | CFU/mL ([5]; Day 14): <10 CFU/mL | Log Reduction ([5]; Day 14): 4.6 Log | CFU/mL ([5]; Day 28): <10 CFU/mL | Log Reduction ([5]; Day 28): 4.6 Log | CFU/mL ([6]; Day 14): <10 CFU/mL | Log Reduction ([6]; Day 14): 4.5 Log | CFU/mL ([6]; Day 28): <10 CFU/mL | Log Reduction ([6]; Day 28): 4.5 Log

COc1ccc2c3c1O[C@H]1C[C@@H](OC(=O)c4ccccc4)C=C[C@@]31CCN(C)C2 [ALPHA-1062, (4aS,6R,8aS)-5,6,9,10,11,12-hexahydro-3-methoxy-11-methyl-4aH-[1]benzofuro[3a,3,2-ef][2]benzazepin-6-ol benzoate]
persistence of structural/functional benefit following removal of drug treatment [7]: at least 2 months | bioavailability in the brain vs oral galantamine [8]: higher bioavailability in the brain, than similar doses of oral galantamine | overt toxicity vs vehicle animals ([9]; 35 days, 4.5 mg/kg IN twice daily): did not show overt toxicity | body weight change vs day zero ([9]; days 1-7 (D1-7)): significant body weight loss (p<0.05) | body weight change vs day zero ([9]; days 29-35 (D29-35)): significant body weight gain | body weight vs vehicle treated or untreated animals ([9]; each time point D0-D35, 4.5 mg/kg IN twice daily, FIG. 10): no significant alterations in body weight compared to vehicle treated or untreated animals

COc1ccc2c3c1O[C@H]1C[C@@H](OC(=O)c4ccccc4)C=C[C@@]31CCN(C)C2.O=C(O)C(O)C(O)C(O)C(O)CO [Form A]
duration for which Form A was sustained [10]: up to 5 days | kinetic stability in the solid state [10]: kinetically stable in the solid state | chemical stability ([11]; appropriate storage conditions): good chemical stability | polymorph stability on storage ([11]; room temperature, at or under about 43% RH or less than 0.12 aw, multiple months): good stability

COc1cc2c(cc1OC)C(=O)C(CC1CCN(Cc3ccccc3)CC1)C2 (centres unmarked) [donepezil]
adverse effects [12]: about half of all patients experienced disturbing adverse effects | TBI-related symptoms [12]: subjective improvement of TBI-related symptoms

COc1ccc2c3c1O[C@H]1C[C@@H](O)C=C[C@@]31CCN(C)C2 [galantamine]
adverse effects [12]: about half of all patients experienced disturbing adverse effects | TBI-related symptoms [12]: subjective improvement of TBI-related symptoms | pre-clinical effects ([13]; active metabolite of benzgalantamine): increase cholinergic activation, reduce neuroinflammation, improve blood-brain barrier function, activate cell survival signalling pathways as well as increase neurogenesis | glutamate and beta-amyloid toxicity [13]: decrease both glutamate and beta-amyloid toxicity | microglial phagocytic activity [14]: activation of microglial phagocytic activity | gastro-intestinal (GI) side effects [15]: clinically significant level of mechanism-based gastro-intestinal (GI) side effects

CCN(C)C(=O)Oc1cccc([C@H](C)N(C)C)c1 [rivastigmine]
adverse effects [12]: about half of all patients experienced disturbing adverse effects | TBI-related symptoms [12]: subjective improvement of TBI-related symptoms
